Test results published in patent US20150216933A1, “HEMATOPOIETIC STEM CELL GROWTH FACTOR” (DUKE UNIVERSITY, priority 2008, published 2015).

B1: Fit-3 ligand: cytokine, 50 ng/mL alone in culture (protein, UniProt P49771 27-235, looked up)
Fms-related tyrosine kinase 3 …: TQDCSFQHSPISSDFAVKIRELSDYLLQDYPVTVASNLQDEELCGGLWRLVLAQRWMERLKTVAGSKMQGLLERVNTEIHFVTKCAFQPPPSCLRFVQTNISRLLQETSEQLVALKPWITRQNFSRCLELQCQPDSSTLPPPWSPRPLEATAPTAPQPPLLLLLLLPVGLLLLAAAWCLHWQRTRRRTPRPGEQVPPVPSPQDLLLVEH

Experiments:
[1] = tested on: Bone marrow lineage negative (lin-) progenitor cells; test: 7 day culture of bone marrow lin- progenitor cells with individual cytokines or TSF with and without PTN; format: cell-based; details: 7 days, individual cytokine
Description: Bone marrow lineage negative (lin-) progenitor cells were placed in culture for 7 days with 20 ng/mL thromobopoietin (TPO), 120 ng/mL stem cell factor (SCF) or 50 ng/mL Flt-3 ligand or the combination of all 3 cytokines (TSF) with and without 100 ng/mL pleiotrophin (PTN).

PI 3-kinase = format: cell-based, mouse
Text: In order to determine a potential mechanism through which PTN mediates HSC expansion, an examination was made as to whether PTN altered pathways that are known to be affected by RPTPβ/ζ (Meng et al, Proc Natl Acad Sci USA 97: 2603-8 (2000), Stoica et al, J Biol Chem 276:16772-9 (2001), Landgraf et al, J Biol Chem 283:25036-45 (2008), Deuel et al, Arch Biochem Biophys 397:162-71 (2002)). Canonical PTN signaling occurs via binding and inactivation of RPTPβ/ζ (Meng et al, Proc Natl Acad Sci USA 97: 2603-8 (2000)), which can facilitate the tyrosine phosphorylation of several intracellular substrates, including Akt and β-catenin (Souttou et al, J Biol Chem 272:19588-93 (1997), Gu et al, FEBS Lett 581:382-8 (2007)). […] BM 34^− KSL cells were treated with TSF with and without 100 ng/mL PTN in the presence and absence of 10 μM wortmannin, a PI 3-kinase inhibitor (Souttou et al, J Biol Chem 272:19588-93 (1997)).

Row | Molecule | support of BM progenitor cells in culture [1] | reduction in BM KSL cell expansion compared to TSF+PTN alone (PI 3-kinase) [fold] | reduction in total cell expansion compared to TSF+PTN alone (PI 3-kinase) [fold]
1 | thromobopoietin: cytokine, 20 ng/mL alone in culture | Neither thromobopoietin alone nor Fit-3 ligand alone supported viable BM progenitor cells |  | 
2 | SCF: stem cell factor, 120 ng/mL, with or without PTN | modest expansion |  | 
3 | COC[C@H]1OC(=O)c2coc3c2[C@@]1(C)C1=C(C3=O)[C@@H]2CCC(=O)[C@@]2(C)C[C@H]1OC(C)=O [wortmannin] |  | 8.1 | 3.4
4 | B1 | Neither thromobopoietin alone nor Fit-3 ligand alone supported viable BM progenitor cells |  | 
